The record followed here is patent US20250163104A1, “MACROCYCLIC IMMUNOMODULATORS” (priority 2021, published 2025).

The assay deals with T1, human PD-1 / PD-L1-Ig binding on Jurkat cell line over-expressing human PD-1 (Jurkat-PD-1) (Homo sapiens, UniProt Q15116).
T1 construct: expressed in transfected cells; host or cells: Jurkat
The assay can be described thus: Jurkat-PD-1 Cell Binding High-Content Screening Assay (CBA). It counts as cell-based. The settings on record: Jurkat-PD-1 cells, PE-labeled PD-L1-Ig 20 nM final; read-out: Jurkat HPD1_PDL1 IC50. The gist of the method:
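Jurkat cells over-expressing human PD-1, in DMEM/10% FCS, pre-incubated with compound 2 h at 37° C. PE-labeled human PD-L1-Ig (20 nM final) added for 1 h; cells fixed in paraformaldehyde with Hoechst 33342 nuclear stain, washed, and bound fluorescence quantified by high-content imaging.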

pIC50: −log10 of the molar value. *1 amine or outer side, *2 acyl side, *3 side chain or, on linkers, in order; H or OH if unused. Where a SMILES comes first, the peptide text is derived from it. Bridges are numbered along the chain shown (N, C = ends). [ ]: non-standard residue; d: D form. The star is where a group is joined. ξ: configuration not given here. Phe(4-COOH) = N[C@@H](Cc1ccc(C(=O)O)cc1)C(=O)O; Bip = N[C@@H](Cc1ccc(-c2ccccc2)cc1)C(=O)O; X7 = CC(=N)NCCC[C@@H](N[*:1])C(=O)[*:2]; Phe(3-Me) = Cc1cccc(C[C@H](N)C(=O)O)c1; hPhe = N[C@@H](CCc1ccccc1)C(=O)O; 4Pal = N[C@@H](Cc1ccncc1)C(=O)O; Cha = N[C@@H](CC1CCCCC1)C(=O)O; Cit = NC(=O)NCCC[C@H](N)C(=O)O; Ile(3ξ) = CCC(C)[C@H](N)C(=O)O; Thr(3ξ) = CC(O)[C@H](N)C(=O)O; Carboxymethyl = O=C(O)C*; Orn = NCCC[C@H](N)C(=O)O; Dab = NCC[C@H](N)C(=O)O; Abu = CC[C@H](N)C(=O)O; Dap = NC[C@H](N)C(=O)O

T1 sequence (Q15116 25-288): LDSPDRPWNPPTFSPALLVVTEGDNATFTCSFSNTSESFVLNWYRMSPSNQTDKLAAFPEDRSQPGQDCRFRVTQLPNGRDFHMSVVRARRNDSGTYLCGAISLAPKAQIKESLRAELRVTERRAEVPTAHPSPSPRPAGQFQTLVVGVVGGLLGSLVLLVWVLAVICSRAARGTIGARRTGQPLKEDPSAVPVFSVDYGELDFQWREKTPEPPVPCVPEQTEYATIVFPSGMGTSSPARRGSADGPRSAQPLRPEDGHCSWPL

For `CC(C)[C@@H]1NC(=O)[C@H](Cc2c[nH]c3ccccc23)NC(=O)[C@H](CC(=O)O)NC(=O)[C@H](Cc2ccc(OCC(=O)O)cc2)NC(=O)[C@H](CN)NC(=O)CSC[C@@H](C(=O)N[C@@H](C)C(N)=O)NC(=O)[C@H]([C@@H](C)O)NC(=O)[C@H](C(C)C)NC(=O)[C@H](CC2CCCCC2)NC(=O)[C@H](CCN)NC(=O)[C@@H](Cc2ccccc2)NC(=O)[C@H](CCCN)NC(=O)[C@H](CCC(=O)O)NC(=O)[C@H](Cc2ccc(-c3ccccc3)cc2)NC1=O` [Compound 1436] ({CH2CO}-[Dap]Y(Carboxymethyl)DWV[Bip]E[Orn][dF][Dab][Cha]VTCA-NH2; thioether N-14), the pIC50 was 7.64.

As for `Cc1cccc(C[C@@H]2NC(=O)[C@H](CC(=O)O)NC(=O)[C@H](Cc3ccncc3)NC(=O)[C@H](Cc3ccc(OCC(=O)O)cc3)NC(=O)CSC[C@@H](C(=O)N[C@@H](C)C(N)=O)NC(=O)[C@H]([C@@H](C)O)NC(=O)[C@H](C(C)C)NC(=O)[C@H](CC3CCCCC3)NC(=O)[C@H](CCN)NC(=O)[C@@H](CC(C)C)NC(=O)[C@H](CCCN)NC(=O)[C@H](C(C)C)NC(=O)[C@H](Cc3ccc(-c4ccccc4)cc3)NC(=O)[C@H](C(C)C)NC2=O)c1` [Compound 1329] ({CH2CO}-Y(Carboxymethyl)[4Pal]D[Phe(3-Me)]V[Bip]V[Orn][dL][Dab][Cha]VTCA-NH2; thioether N-14), the pIC50 is 8.17.

For the molecule `CC(C)C[C@H]1NC(=O)[C@H](CCCN)NC(=O)[C@H](CCCNC(N)=O)NC(=O)[C@H](Cc2ccc(-c3ccccc3)cc2)NC(=O)[C@H](C(C)C)NC(=O)[C@H](Cc2c[nH]c3ccccc23)NC(=O)[C@H](CC(=O)O)NC(=O)[C@H](Cc2ccc(O)cc2)NC(=O)[C@H](CC(N)=O)NC(=O)CSC[C@@H](C(=O)N[C@@H](C)C(N)=O)NC(=O)[C@H]([C@@H](C)O)NC(=O)[C@H](C(C)C)NC(=O)[C@H](CC2CCCCC2)NC(=O)[C@H](CCCNC(=N)N)NC1=O` [Compound 1155] ({CH2CO}-NYDWV[Bip][Cit][Orn][dL]R[Cha]VTCA-NH2; thioether N-14), the pIC50 is 8.11.

`CC(C)C[C@H]1NC(=O)[C@H](CCCN)NC(=O)[C@H](CN)NC(=O)[C@H](Cc2ccc(-c3ccccc3)cc2)NC(=O)[C@H](C(C)C)NC(=O)[C@H](Cc2c[nH]c3ccccc23)NC(=O)[C@H](CC(=O)O)NC(=O)[C@H](Cc2ccncc2)NC(=O)[C@H](CN)NC(=O)CSC[C@@H](C(=O)N[C@@H](C)C(N)=O)NC(=O)[C@H]([C@@H](C)O)NC(=O)[C@H](C(C)C)NC(=O)[C@H](CC2CCCCC2)NC(=O)[C@H](CCN)NC1=O` [Compound 1388]: the pIC50 is 7.59.

Take `Cc1cccc(C[C@@H]2NC(=O)[C@H](CC(=O)O)NC(=O)[C@H](Cc3ccncc3)NC(=O)[C@H](CN)NC(=O)CSC[C@@H](C(=O)N[C@@H](C)C(N)=O)NC(=O)[C@H]([C@@H](C)O)NC(=O)[C@H](C(C)C)NC(=O)[C@H](CC3CCCCC3)NC(=O)[C@H](CCN)NC(=O)[C@@H](CC(C)C)NC(=O)[C@H](CCCN)NC(=O)[C@H](CCC(=O)O)NC(=O)[C@H](Cc3ccc(-c4ccccc4)cc3)NC(=O)[C@H](C(C)C)NC2=O)c1` [Compound 1418] ({CH2CO}-[Dap][4Pal]D[Phe(3-Me)]V[Bip]E[Orn][dL][Dab][Cha]VTCA-NH2; thioether N-14): the pIC50 was 8.09.

As for `CC(C)C[C@H]1NC(=O)[C@H](CCCN)NC(=O)[C@H](CCCN)NC(=O)[C@H](Cc2ccc(-c3ccccc3)cc2)NC(=O)[C@H](C(C)C)NC(=O)[C@H](Cc2c[nH]c3ccccc23)NC(=O)[C@H](CC(=O)O)NC(=O)[C@H](Cc2ccc(OCC(=O)O)cc2)NC(=O)[C@H](Cc2ccncc2)NC(=O)CSC[C@@H](C(=O)N[C@@H](C)C(N)=O)NC(=O)[C@H]([C@@H](C)O)NC(=O)[C@H](C(C)C)NC(=O)[C@H](CC2CCCCC2)NC(=O)[C@H](CCN)NC1=O` [Compound 1390], the negative-log IC50 (pIC50) is 7.78.

In the case of `CC(C)C[C@H]1NC(=O)[C@H](CCCN)NC(=O)[C@H](CCC(=O)O)NC(=O)[C@H](Cc2ccc(-c3ccccc3)cc2)NC(=O)[C@H](C(C)C)NC(=O)[C@H](Cc2c[nH]c3ccccc23)NC(=O)[C@H](CC(=O)O)NC(=O)[C@H](Cc2ccc(OCC(=O)O)cc2)NC(=O)[C@H](Cc2ccc(OCC(=O)O)cc2)NC(=O)CSC[C@@H](C(=O)N[C@@H](C)C(N)=O)NC(=O)[C@H]([C@@H](C)O)NC(=O)[C@H](C(C)C)NC(=O)[C@H](Cc2ccc(O)cc2)NC(=O)[C@H](CCN)NC1=O` [Compound 1688] ({CH2CO}-Y(Carboxymethyl)Y(Carboxymethyl)DWV[Bip]E[Orn][dL][Dab]YVTCA-NH2; thioether N-14), the pIC50 was 6.20.

For the molecule `CCC(C)[C@@H]1NC(=O)[C@H](Cc2ccc(-c3ccccc3)cc2)NC(=O)[C@H](CC2CCCCC2)NC(=O)[C@H](Cc2c[nH]c3ccccc23)NC(=O)[C@H](CC(=O)O)NC(=O)[C@H](Cc2ccc(OCC(=O)O)cc2)NC(=O)[C@H](C(C)O)NC(=O)CSC[C@@H](C(=O)N[C@@H](CC(N)=O)C(=O)O)NC(=O)[C@H](CO)NC(=O)[C@H](C(C)C)NC(=O)[C@H](CC(C)C)NC(=O)[C@H](CCN)NC(=O)[C@@H](CC(C)C)NC(=O)[C@H](CCCN)NC1=O` (stereo partly drawn) [Compound 2575] ({CH2CO}-[Thr(3ξ)]Y(Carboxymethyl)DW[Cha][Bip][Ile(3ξ)][Orn][dL][Dab]LVSCN-OH; thioether N-14), the pIC50 was 7.22.

Take `CCC(C)[C@@H]1NC(=O)[C@H](Cc2ccc(-c3ccccc3)cc2)NC(=O)[C@H](Cc2ccc(OCC(=O)O)cc2)NC(=O)[C@H](Cc2cccc(C)c2)NC(=O)[C@H](CC(=O)O)NC(=O)[C@H](Cc2ccc(C(=O)O)cc2)NC(=O)[C@H](Cc2ccncc2)NC(=O)CSC[C@@H](C(=O)N[C@@H](CC(N)=O)C(N)=O)NC(=O)[C@H]([C@@H](C)O)NC(=O)[C@H](C(C)C)NC(=O)[C@H](CC2CCCCC2)NC(=O)[C@H](CCN)NC(=O)[C@@H](CC(C)C)NC(=O)[C@H](CCCN)NC1=O` (stereo partly drawn) [Compound 2315] ({CH2CO}-[4Pal][Phe(4-COOH)]D[Phe(3-Me)]Y(Carboxymethyl)[Bip][Ile(3ξ)][Orn][dL][Dab][Cha]VTCN-NH2; thioether N-14): the pIC50 is 7.48.

As for `CC(C)C[C@H]1NC(=O)[C@H](CCCN)NC(=O)[C@H](CCCCN)NC(=O)[C@H](Cc2ccc(-c3ccccc3)cc2)NC(=O)[C@H](C(C)C)NC(=O)[C@H](Cc2c[nH]c3ccccc23)NC(=O)[C@H](CC(=O)O)NC(=O)[C@H](Cc2ccncc2)NC(=O)[C@H](CN)NC(=O)CSC[C@@H](C(=O)N[C@@H](CCCN)C(N)=O)NC(=O)[C@H]([C@@H](C)O)NC(=O)[C@H](C(C)C)NC(=O)[C@H](CC2CCCCC2)NC(=O)[C@H](CCN)NC1=O` [Compound 2250] ({CH2CO}-[Dap][4Pal]DWV[Bip]K[Orn][dL][Dab][Cha]VTC[Orn]-NH2; thioether N-14), the pIC50 was 7.36.

Regarding `CC(C)C[C@H]1NC(=O)[C@H](CCCN)NC(=O)[C@H](CCCNC(N)=O)NC(=O)[C@H](Cc2ccc(-c3ccccc3)cc2)NC(=O)[C@H](C(C)C)NC(=O)[C@H](Cc2c[nH]c3ccccc23)NC(=O)[C@H](CC(=O)O)NC(=O)[C@H](Cc2ccc(OCC(=O)O)cc2)NC(=O)[C@H](CN)NC(=O)CSC[C@@H](C(=O)N[C@@H](C)C(N)=O)NC(=O)[C@H]([C@@H](C)O)NC(=O)[C@H](C(C)C)NC(=O)[C@H](CCc2ccccc2)NC(=O)[C@H](CCN)NC1=O` [Compound 1364] ({CH2CO}-[Dap]Y(Carboxymethyl)DWV[Bip][Cit][Orn][dL][Dab][hPhe]VTCA-NH2; thioether N-14), the pIC50 was 7.24.

As for `CC(C)C[C@H]1NC(=O)[C@H](CCCN)NC(=O)[C@H](C(C)C)NC(=O)[C@H](Cc2ccc(-c3ccccc3)cc2)NC(=O)[C@H](C(C)C)NC(=O)[C@H](Cc2c[nH]c3ccccc23)NC(=O)[C@H](CC(=O)O)NC(=O)[C@H](Cc2ccc(OCC(=O)O)cc2)NC(=O)[C@H](Cc2ccc(OCC(=O)O)cc2)NC(=O)CSC[C@@H](C(=O)N[C@@H](C)C(N)=O)NC(=O)[C@H]([C@@H](C)O)NC(=O)[C@H](C(C)C)NC(=O)[C@H](Cc2ccc(O)cc2)NC(=O)[C@H](CCN)NC1=O` [Compound 1683] ({CH2CO}-Y(Carboxymethyl)Y(Carboxymethyl)DWV[Bip]V[Orn][dL][Dab]YVTCA-NH2; thioether N-14), the pIC50 was 6.98.

As to `CC(=N)NCCC[C@@H](NC(=O)[C@@H]1CSCC(=O)N[C@@H](Cc2ccc(OCC(=O)O)cc2)C(=O)N[C@@H](Cc2ccc(C(=O)O)cc2)C(=O)N[C@@H](CC(=O)O)C(=O)N[C@@H](Cc2cccc(C)c2)C(=O)N[C@@H](C(C)C)C(=O)N[C@@H](Cc2ccc(-c3ccccc3)cc2)C(=O)N[C@@H](C(C)C)C(=O)N[C@@H](CCN)C(=O)N[C@H](CC(C)C)C(=O)N[C@@H](CCN)C(=O)N[C@@H](CC2CCCCC2)C(=O)N[C@@H](C(C)C)C(=O)N[C@@H](CCCN)C(=O)N1)C(=O)O` [Compound 2588] ({CH2CO}-Y(Carboxymethyl)[Phe(4-COOH)]D[Phe(3-Me)]V[Bip]V[Dab][dL][Dab][Cha]V[Orn]C[X7]-OH; thioether N-14), the pIC50 was 8.00.

As to `CC[C@@H]1NC(=O)[C@H](Cc2c[nH]c3ccccc23)NC(=O)[C@H](CC(=O)O)NC(=O)[C@H](Cc2ccc(OCC(=O)O)cc2)NC(=O)[C@H](CN)NC(=O)CSC[C@@H](C(=O)N[C@@H](C)C(N)=O)NC(=O)[C@H]([C@@H](C)O)NC(=O)[C@H](C(C)C)NC(=O)[C@H](CC2CCCCC2)NC(=O)[C@H](CCN)NC(=O)[C@@H](CC(C)C)NC(=O)[C@H](CCCN)NC(=O)[C@H](CCCNC(N)=O)NC(=O)[C@H](Cc2ccc(-c3ccccc3)cc2)NC1=O` [Compound 1356] ({CH2CO}-[Dap]Y(Carboxymethyl)DW[Abu][Bip][Cit][Orn][dL][Dab][Cha]VTCA-NH2; thioether N-14), the pIC50 was 8.26.
